Data set [1] in a line: Approximate solubility by incremental addition of solvent. The class given is physicochemical. As to conditions: for solubility: thermodynamic from solid; for solubility / Approximate solubility: room temperature. How it is done:
Solubility: Approximate solubilities were determined by incremental addition of solvent to about 10 mg the compound. If the substance was not dissolved by addition of a total of at least 10 ml solvent, the solubility is indicated as <1 mg/ml. Due to the experimental error inherent in this method, the solubility values are intended to be regarded as rough estimates and are to be used solely for the design of crystallization experiments.
Approximate solubilities were determined for amorphous Compound (I) at room temperature. These values were obtained by addition of small aliquots of solvent to small amounts of solid to achieve dissolution by stirring or agitation for a short period of time. […] Ratios for solvent mixtures correspond to volume ratios.
Initially the tests were carried out with the amorphous form Compound (I) and later on, after stable crystalline Form D (Example 7 below) was discovered, some of the tests were repeated with the crystalline form. […] Antisolvents are water, heptane, and TBME. […] Based on available data and further experiments diisopropylether, cyclohexane and methylcyclohexane can also be used as antisolvents.

The next data set can be described thus: Aqueous solubility. The class given is physicochemical. As to conditions: water, thermodynamic from solid.
Data set [2] is described as follows: pH dependent solubility tests in 0.1 M HCl, citrate buffer and USP phosphate buffers. In kind it is physicochemical. The conditions noted are these: for solubility: thermodynamic from solid. Here is the method: pH dependent solubility tests were conducted in 0.1 M HCl, in citrate buffer, and in USP phosphate buffers with nominal pH values of 6.8 and 7.4. Solubility tests at pH values below 5 failed because all compounds dissolved during the equilibration phase.

Data set [3] can be described thus: Dynamic vapor sorption (DVS), with PXRD and TG-FTIR of the post-DVS sample. In kind it is physicochemical. Here is the method: Dynamic vapor sorption: DVS measurements were performed with an SPS11-100n “Sorptions Prifsystem” from ProUmid (formerly “Projekt Messtechnik”), August-Nagel-Str. 23, 89079 Ulm (Germany). About 5-20 mg of sample was put into an aluminum sample pan. Humidity change rates of 5% per hour were used. The applied measurement program is visualized in the figure (blue trace). The presentations showing the effective water content are corrected.
The sample was placed on an aluminum or platinum holder on top of a microbalance and allowed to equilibrate at 50% RH before starting the pre-defined humidity programs. The measurement program is visualized in the figures of the report.
Classification of Hygroscopicity: The hygroscopicity was classified based on the mass gain at 85% RH relative to the initial mass as follows: deliquescent (sufficient water adsorbed to form a liquid), very hygroscopic (mass increase of ≥15%), hygroscopic (mass increase <15% but ≥2%), slightly hygroscopic (mass increase <2% but ≥0.2%), or non-hygroscopic (mass increase <0.2%).

Data set [4] in a line: Thermogravimetry coupled with FT-IR (TG-FTIR), decomposition. In kind it is physicochemical. How it is done: TG-FTIR: Thermogravimetric measurements were carried out with a Netzsch Thermo-Microbalance TG 209 coupled to a Bruker FTIR Spectrometer Vector 22 (sample pans with a pinhole, N2 atmosphere, heating rate 10 K/min).
The target in the next data set is EGFR (Homo sapiens, UniProt P00533). As to conditions: as disclosed in WO 2020/190765; cited from earlier work.
EGFR, sequence (P00533 25-1210): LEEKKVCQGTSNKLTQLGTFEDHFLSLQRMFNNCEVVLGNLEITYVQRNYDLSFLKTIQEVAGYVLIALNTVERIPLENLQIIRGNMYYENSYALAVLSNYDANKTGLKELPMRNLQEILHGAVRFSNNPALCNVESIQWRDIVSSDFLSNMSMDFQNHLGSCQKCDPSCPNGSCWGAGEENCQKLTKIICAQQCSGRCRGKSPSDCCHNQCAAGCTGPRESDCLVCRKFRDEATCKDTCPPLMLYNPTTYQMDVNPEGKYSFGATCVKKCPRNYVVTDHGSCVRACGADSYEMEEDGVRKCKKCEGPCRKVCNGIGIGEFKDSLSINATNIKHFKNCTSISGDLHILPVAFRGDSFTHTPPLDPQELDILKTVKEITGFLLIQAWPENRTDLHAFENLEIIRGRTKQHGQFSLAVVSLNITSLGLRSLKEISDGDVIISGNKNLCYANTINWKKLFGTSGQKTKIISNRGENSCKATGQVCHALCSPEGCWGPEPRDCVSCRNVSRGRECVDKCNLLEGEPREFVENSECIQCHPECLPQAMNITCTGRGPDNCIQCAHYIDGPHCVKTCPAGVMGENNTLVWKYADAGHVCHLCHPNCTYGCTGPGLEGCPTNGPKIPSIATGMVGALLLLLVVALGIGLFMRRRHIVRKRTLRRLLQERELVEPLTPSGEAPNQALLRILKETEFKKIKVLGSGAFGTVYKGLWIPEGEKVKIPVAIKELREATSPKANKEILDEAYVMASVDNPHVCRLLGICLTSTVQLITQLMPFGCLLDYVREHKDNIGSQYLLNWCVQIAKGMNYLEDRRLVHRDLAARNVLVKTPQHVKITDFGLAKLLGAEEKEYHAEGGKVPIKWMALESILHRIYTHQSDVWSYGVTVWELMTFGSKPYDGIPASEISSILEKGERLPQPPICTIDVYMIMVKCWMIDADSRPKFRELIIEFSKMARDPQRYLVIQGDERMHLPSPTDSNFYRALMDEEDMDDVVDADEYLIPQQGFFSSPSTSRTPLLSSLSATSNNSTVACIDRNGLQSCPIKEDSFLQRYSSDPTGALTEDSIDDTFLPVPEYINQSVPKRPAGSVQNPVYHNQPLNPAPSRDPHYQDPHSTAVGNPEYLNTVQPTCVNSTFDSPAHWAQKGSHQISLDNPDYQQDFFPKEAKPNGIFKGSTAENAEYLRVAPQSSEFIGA
For data set [5] the following is noted: as disclosed in WO 2020/190765; cited from earlier work.

≈ marks a conversion by molar mass, not a printed value.

On to `CN1CCN(C[C@H]2COc3cc4ncnc(Nc5cccc(Br)c5F)c4cc3O2)CC1` [Amorphous form, (S)—N-(3-bromo-2-fluorophenyl)-7-((4-methylpiperazin-1-yl)methyl)-7,8-dihydro-[1,4]dioxino[2,3-g]quinazolin-4-amine], for which the solubility (usually how much of the substance goes into solution per volume) is above 100 mg/mL in data set [1] (2-propanol, organic solvent or mixture, Propanol, 2-); above 100 mg/mL in data set [1] (MEK, organic solvent or mixture); around 2 mg/mL (≈ 4.1 mM) in data set [1] (TBME, organic solvent or mixture); above 130 mg/mL in data set [1] (THF, organic solvent or mixture); around 2 mg/mL (≈ 4.1 mM) in data set [1] (THF/n-heptane (1/1, v/v), organic solvent or mixture, THF/n-heptane (1/1)); above 130 mg/mL in data set [1] (acetic acid/water (1/3, v/v), aqueous with cosolvent or surfactant or cyclodextrin, Acetic acid/water (1/3)). Also, the solubility in data set [1] (acetone, organic solvent or mixture) was above 100 mg/mL; in data set [1] (acetone/water (1/1, v/v), aqueous with cosolvent or surfactant or cyclodextrin, Acetone/water (1/1)), above 120 mg/mL; in data set [1] (acetonitrile/water (1/1, v/v), aqueous with cosolvent or surfactant or cyclodextrin, Acetonitrile/water (1/1)), above 110 mg/mL; in data set [1] (anisole, organic solvent or mixture), above 160 mg/mL; in data set [1] (dichloromethane, organic solvent or mixture), above 100 mg/mL; in data set [1] (ethanol, organic solvent or mixture) it was above 100 mg/mL. In addition, the solubility is above 130 mg/mL in data set [1] (ethanol/n-heptane (1/1, v/v), organic solvent or mixture, Ethanol/n-heptane (1/1)); above 100 mg/mL in data set [1] (ethanol/water (1/1, v/v), aqueous with cosolvent or surfactant or cyclodextrin, Ethanol/water (1/1)); above 100 mg/mL in data set [1] (ethyl acetate, organic solvent or mixture); above 100 mg/mL in data set [1] (methanol, organic solvent or mixture); above 140 mg/mL in data set [1] (methanol/TBME (1/2, v/v), organic solvent or mixture, Methanol/TBME (1/2)); below 1 mg/mL in data set [1] (n-heptane, organic solvent or mixture). For the same compound, the solubility amounted to 0.316 mg/mL (≈ 0.647 mM) in data set [2] (USP phosphate buffer (nominal pH 6.8), aqueous buffer, effective pH 6.95); 0.094 mg/mL (≈ 0.192 mM) in data set [2] (USP phosphate buffer (nominal pH 7.4), pH 7.5, aqueous buffer, effective pH 7.50); 9.63 mg/mL (≈ 19.7 mM) in data set [2] (citrate buffer, aqueous buffer, effective pH 6.25). In addition, the Approximate solubility entry in data set [1] (Acetonitrile) is “S > 130 mg/ml”; in data set [1] (Ethanol/n-heptane (1/3)), “S > 130 mg/ml”; in data set [1] (Isopropyl acetate) it was “S~100 mg/ml”; in data set [1] (Water), “S < 1 mg/ml”. The “Solubility in the most common organic solvents (in words)” value in data set [1] (acetic acid, ketones, alcohols, esters, dichloromethane and mixtures thereof) is listed as “highly soluble”. Further, the solubility at 24 h in “Aqueous solubility” (equilibration time 24 hours, pH 9.27) stood at 0.049 mg/mL (≈ 0.1 mM). In addition, the concentration in solution in the data set “Aqueous solubility” (equilibration time one hour, pH 9.16) (solubility at 1 h) was 0.046 mg/mL (≈ 0.0942 mM). The Hygroscopicity classification entry in data set [3] (DVS, classes based on mass gain at 85% RH relative to initial mass) is on record as “hygroscopic (hygroscopic (mass increase <15% but ≥2%))”. Also, the “Solid form of the sample recovered post-DVS (PXRD)” value in data set [3] (PXRD after DVS) is “has not changed”. The “Water lost during DVS” value in data set [3] (approximately same amount as during TG-FTIR) is reported as “roughly 1.5%”. In data set [3] (end of test), the “Water content at the end of the DVS test” value is recorded as “about 6.4%”. Moreover, in data set [3] (high r.h. end), the “Water content at the high r.h. end during the DVS cycles” value is listed as “about 15%”. Further, the Decomposition temperature result in data set [4] was “above 200 °C”.

Turning to `CN1CCN(C[C@H]2COc3cc4ncnc(Nc5cccc(Br)c5F)c4cc3O2)CC1` [Compound (I), (S)—N-(3-bromo-2-fluorophenyl)-7-((4-methylpiperazin-1-yl)methyl)-7,8-dihydro-[1,4]dioxino[2,3-g]quinazolin-4-amine], the “Amount of compound that easily dissolves (approximate test)” value in data set [2] (in 1.0 ml of 0.1M HCl) is given as at least 55 mg. The EGFR inhibitory activity result at EGFR was “good EGFR inhibitory activity”. In data set [5], the Brain penetration capability result is “brain penetration capability”.

Source of the values: patent publication US12545686B2, “Polymorphic forms of (s)-n-(3-bromo-2-fluorophenyl)-7-((4-methylpiperazin-1-yl)methyl)-7,8-dihydro-[1,4]dioxino[2,3-g]quinazolin-4-amine as EGFR inhibitors” (ERASCA, INC., priority 2021, dated 2026).
